Measurements reported in PubChem BioAssay AID686969 (The Scripps Research Institute Molecular Screening Center, 2013).
Activity calls are given as the source filed them. How the calls were made is not given here.

Biological target: methionyl-tRNA synthetase (Trypanosoma brucei)
Assay: T. brucei MetRS inhibitors, orthogonal readout, late-stage follow-up, orthogonal assay for T. brucei MetRS inhibitor project, biochemical, fluorescence polarization, dose response (AID 686969)

Compound	IC50
CC(C)(C)[C@H]1C=C(C(=O)NCc2nc3ccccc3[nH]2)O[C@@H](OCc2ccc(CO)cc2)C1	5390 nM
Cc1ccc(NC(=O)CN(C)C(=O)CCSc2ccc(F)cc2)cc1	5730 nM
CN(Cc1cc(Cl)cc(Cl)c1)[C@H]1C[C@H]2c3[nH]c4ccccc4c3CCN2C(=O)[C@H]1CO	922 nM
CCOC(=O)N1CCC(Nc2c(Nc3ccc(F)cc3)c(=O)c2=O)CC1	7300 nM
O=C(NCc1nc2ccccc2[nH]1)C1=C[C@H](c2ccccc2)C[C@H](OCc2ccc(CO)cc2)O1	inactive
O=C(NNC(=O)c1ccc(-n2cncn2)c([N+](=O)[O-])c1)c1ccc(Cl)cc1	7410 nM
O=C(NCc1nc2ccccc2[nH]1)C1=C[C@@H](C2CC2)C[C@@H](OCc2ccc(CO)cc2)O1	2660 nM
O=C(C[C@H]1C(=O)N(Cc2ccccc2)C[C@@H]1c1ccc(Br)cc1)Nc1ccc(Br)cc1	2970 nM
O=C(NNC(=O)c1cc(-c2ccc(Cl)c(Cl)c2)nc2ccccc12)Nc1ccccc1	1490 nM
O=C(NCc1nc2ccccc2[nH]1)C1=C[C@H](c2ccc(Br)cc2)C[C@H](OCc2ccc(CO)cc2)O1	3520 nM
O=C(NCc1nc2ccccc2[nH]1)C1=C[C@@H](c2ccccc2)C[C@@H](OCc2ccc(CO)cc2)O1	2210 nM
O=C(Cn1cnc2ccccc21)Nc1cccc([N+](=O)[O-])c1	2800 nM
COc1cccc(NC(=O)CSc2nnc3c(n2)[nH]c2ccc(C)cc23)c1	75.1 nM
COc1ccc(OCC(O)CNC(=O)Nc2ccc(Cl)cc2)cc1 (stereo not drawn)	7550 nM
O=C1[C@@H]2Cc3c([nH]c4ccccc34)C(c3cccc([N+](=O)[O-])c3)N2C(=O)CN1CCCO (stereo partly drawn)	933 nM
O=C(CC=NOCc1ccc([N+](=O)[O-])cc1)Nc1ccc(Br)cc1	1310 nM
O=C(Cn1cc(C(=O)C(=O)N2CCOCC2)c2ccccc21)Nc1cccc(C(F)(F)F)c1	292 nM
CC(C)(C)[C@@H]1C=C(C(=O)NCc2nc3ccccc3[nH]2)O[C@H](OCc2ccc(CO)cc2)C1	8120 nM
O=C(CN1CCSC1=NCc1ccccc1)c1ccc(Cl)c(Cl)c1	3910 nM
O=C(CC(=O)Nc1cccc(Cl)c1)NN=Cc1ccccc1	6030 nM
COc1ccccc1NS(=O)(=O)c1cccc(NC(=O)Nc2ccccc2)c1	600 nM
Brc1cnc2nc(SCc3nc4ccccc4[nH]3)[nH]c2c1	4270 nM
CN1CC(=O)N2C(c3cccc([N+](=O)[O-])c3)c3[nH]c4ccccc4c3C[C@H]2C1=O (stereo partly drawn)	717 nM
Clc1ccc(OCCSCc2nc3ccccc3[nH]2)cc1	9230 nM
O=C(NCCc1nc2ccccc2[nH]1)c1ccc(Cl)c([N+](=O)[O-])c1	331 nM
O=C(CCC(=O)Nc1cccc([N+](=O)[O-])c1)NN=Cc1cccs1	8370 nM
C[C@H](O)[C@@H]1C(=O)N2CCc3c([nH]c4ccccc34)[C@@H]2C[C@@H]1N(C)Cc1ccc2c(c1)OCO2	439 nM

Compound	IC50
Clc1ccc(-c2nnc(SCc3nc4ccccc4[nH]3)o2)c(Cl)c1	933 nM
O=C(N/C(=C\c1cccnc1)c1nc2ccccc2[nH]1)c1cccc(Br)c1	5650 nM
CCO[C@H]1OC(C(=O)NCc2nc3ccccc3[nH]2)=C[C@@H](c2ccc(Br)cc2)[C@@H]1CCCO	9390 nM
O=C(NCc1nc2ccccc2[nH]1)C1=C[C@@H](c2ccc(Br)cc2)C[C@@H](OCCCCO)O1	1140 nM
O=C(NCc1nc2ccccc2[nH]1)C1=C[C@@H](c2ccc3c(c2)OCO3)C[C@@H](OCCCCO)O1	2030 nM
O=C(NCc1nc2ccccc2[nH]1)C1=C[C@H](c2ccc3c(c2)OCO3)C[C@H](OCCCCO)O1	6220 nM
CC(=O)c1ccc(N2CCN(C(=O)CCCn3c(=O)[nH]c4ccc(Br)cc4c3=O)CC2)cc1	879 nM
O=C1CC(N(CCc2ccccc2)C(=S)Nc2ccccc2)C(=O)N1c1ccc(Br)cc1 (stereo not drawn)	566 nM
O=C(NCc1nc2ccccc2[nH]1)C1=C[C@H](c2ccc(Br)cc2)C[C@H](OCCCCO)O1	3110 nM
COc1ccccc1-n1c(SCC(=O)Nc2ccc(Cl)cc2)nc(O)c(Cc2ccccc2)c1=O	4590 nM
O=C(NCc1nc2ccccc2[nH]1)C1=C[C@@H](c2ccc(Br)cc2)C[C@@H](OCc2ccc(CO)cc2)O1	2030 nM
O=C(Nc1ccc(F)c(Cl)c1)C1CC(=O)n2c(nc3ccccc32)N1 (stereo not drawn)	2910 nM
CCO[C@@H]1OC(C(=O)NCc2nc3ccccc3[nH]2)=C[C@H](c2ccc(Br)cc2)[C@H]1CCCO	inactive
CN(CC(=O)Nc1ccc(Cl)cc1)C(=O)c1ccc(-n2cncn2)c([N+](=O)[O-])c1	1910 nM
CC(CC(=O)Nc1cccc(Br)c1)=NNC(=O)c1ccc(O)cc1O	2360 nM
COc1ccc2[nH]c3nc(SCC(=O)Nc4ccc5c(c4)OCO5)nnc3c2c1	926 nM
Oc1c(Cl)cc(Cl)cc1CNc1nc2ccccc2[nH]1	1770 nM
O=C(NCc1nc2ccccc2[nH]1)C1=C[C@@H](c2csc3ccccc23)C[C@@H](OCCCCO)O1	4650 nM
CCCCCCCCCC1NC(C(=O)O)Cc2c1[nH]c1ccccc21 (stereo not drawn)	4270 nM
Cc1[nH]c2ccc(Br)cc2c(=O)c1CN1CCCCCC1	inactive
CC(=O)c1c[nH]c(C(=O)NCc2cccc(C(F)(F)F)c2)c1	2220 nM
CC(C)OCCCN1CC(=O)N2C(c3cccc([N+](=O)[O-])c3)c3[nH]c4ccccc4c3C[C@H]2C1=O (stereo partly drawn)	1490 nM
O=C(NCc1nc2ccccc2[nH]1)C1=C[C@H](c2csc3ccccc23)C[C@H](OCCCCO)O1	1790 nM
O=C(CC=NOCc1ccc([N+](=O)[O-])cc1)Nc1ccc(Cl)cc1	2870 nM
O=C1CC(SCc2nc3ccccc3[nH]2)C(=O)N1c1cccc(Cl)c1 (stereo not drawn)	inactive
O=C(NCc1nc2ccccc2[nH]1)C1=C[C@H](C2CC2)C[C@H](OCc2ccc(CO)cc2)O1	8110 nM
